# pIC50: −log10 of the molar value.
# Test system: MDA-MB-468 spheroids with HUVEC/MSC, viability
# Assay: Anticancer human tumor MDA-MB-468 cell line growth inhibition [PI3K];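 note: spheroids exposed to agents for seven days before readout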;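 for viability, T/C: 100% = DMSO vehicle control viability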
# Details: for pIC50: curve of first compound; for viability, T/C: stronger effect = lower value
# Excerpt: Combinatorial screen of targeted agents with the PI3K inhibitors inavolisib, alpelisib, duvelisib, and copanlisib in multi-cell type tumor spheroids
# A high-throughput screen of multi-cell type tumor spheroids was designed to identify active combinations of targeted small molecules and PI3K pathway inhibitors. Complex spheroids include a stromal component modeled by human endothelial cells (HUVEC) and fibroblasts modeled by human mesenchymal stem cells (MSCs). The concentration ranges selected for each drug and investigational agent were based upon clinically achievable concentrations if the clinical Cmax of the agent was known.
# Compounds. The drugs and investigational agents: inavolisib (NSC800729), alpelisib (NSC765974), duvelisib (NSC772469), copanlisib (NSC816437), ipatasertib (NSC767898), afuresertib (NSC778305), talazoparib (NSC767125), sapanisertib (NSC764658), selumetinib (NSC741078), tovorafenib (DAY101, NSC766906), vemurafenib (NSC761431), ravoxertinib (NSC781343), sotorasib (NSC818433), MRTX1133 (NSC 836407), abemaciclib (NSC 768073), palbociclib (NSC758247), venetoclax (NSC 766270), SY5609 (NSC837396), enzalutamide (NSC755605), and darolutamide (NSC825331), were obtained from the National Cancer Institute (NCI) Developmental Therapeutics Program Chemical Repository. The FDA-approved anticancer drug set is available from the NCI Developmental Therapeutics Program. […] The stock solutions were prepared in dimethyl sulfoxide (DMSO, Sigma-Aldrich, St. Louis, MO, cat. D2650) at 800-fold the tested concentration and stored at -70 degrees C prior to their use. All drugs and investigational agents were tested over a range starting from a high concentration at or near the clinical Cmax and decreasing in half-log increments. If the clinical Cmax for an agent had not been determined, the highest concentration tested was 10 microM.
# Cell Culture. All cells were maintained in an incubator at 37 degrees C and 5% CO2 with 95% humidity. The PDC lines were cultured according to standard operating procedures established by the NCI PDMR (https://pdmr.cancer.gov/sops/default.htm). All PDCs were thawed and cultured in Matrigel-coated flasks prepared with a working solution of 1X Ham's F-12 nutrient mix, without supplementation (Invitrogen, Waltham, MA, cat. 11765054), 100 U/mL penicillin-streptomycin (Invitrogen, cat. 15140122), and 2.5% Matrigel (Corning Inc., Corning, NY, cat. 354248) for the first three passages. The 354836-022-R-J1-PDC, 475296-252-R-J1-PDC, and 997726-040-R-J2-PDC lines were cultured in 6A media, which includes advanced DMEM/F-12 (Thermo Fisher Scientific, cat. 12634028), 10 mM HEPES (Thermo Fisher Scientific, cat. 15630080), 1X GlutaMAX supplement (Thermo Fisher Scientific, cat. 35050061), 0.1 mg/mL primocin (InvivoGen, San Diego, CA, cat. ant-pm-2), 10% defined fetal bovine serum, heat inactivated (HyClone Laboratories Inc., Logan, UT, cat. SH30070.03HI), 50% L-WRN conditioned media (ATCC, cat. CRL-3276), 1.25 mM N-Acetyl-L-cysteine (Sigma-Aldrich, cat. A9165), 10 mM nicotinamide (Sigma-Aldrich, cat. N0636), 1X B-27 supplement (Thermo Fisher Scientific, cat. 17504044), 1X N-2 supplement (Thermo Fisher Scientific, cat. 17502048), and 10 microM Y-27632 dihydrochloride (Tocris Bioscience, Bristol, United Kingdom, cat. 1254). The 624824-186-R-J2-PDC line was cultured in 6C/Colon 1B media, which includes all 6A media components plus 50 ng/mL human EGF recombinant protein (Thermo Fisher Scientific, cat. PHG0311). […]
smiles,measurement,setting,value
Cn1nccc1Nc1nccc(-c2ccn(C(CO)c3ccc(Cl)c(F)c3)c(=O)c2)n1 (centres undefined) + CC(Nc1ccc2c(c1)OCCn1cc(N3C(=O)OCC3C(F)F)nc1-2)C(N)=O,pIC50,second compound 0.00316 µM,< 5.00
same,pIC50,second compound 0.01 µM,< 5.00
same,pIC50,second compound 0.0316 µM,< 5.00
same,pIC50,second compound 0.1 µM,< 5.00
same,pIC50,second compound 0.316 µM,< 5.00
same,pIC50,second compound 1 µM,< 5.00
same,"viability, T/C","second compound 0.00316 µM, first compound 0.0316 µM",85.3%
same,"viability, T/C","second compound 0.00316 µM, first compound 0.1 µM",96.8%
same,"viability, T/C","second compound 0.00316 µM, first compound 0.316 µM",87.2%
same,"viability, T/C","second compound 0.00316 µM, first compound 1 µM",90.4%
same,"viability, T/C","second compound 0.00316 µM, first compound 3.16 µM",96.1%
same,"viability, T/C","second compound 0.00316 µM, first compound 10 µM",87.9%
same,"viability, T/C","second compound 0.01 µM, first compound 0.0316 µM",97%
same,"viability, T/C","second compound 0.01 µM, first compound 0.1 µM",89.1%
same,"viability, T/C","second compound 0.01 µM, first compound 0.316 µM",87.8%
same,"viability, T/C","second compound 0.01 µM, first compound 1 µM",94.9%
same,"viability, T/C","second compound 0.01 µM, first compound 3.16 µM",101%
same,"viability, T/C","second compound 0.01 µM, first compound 10 µM",82.6%
same,"viability, T/C","second compound 0.0316 µM, first compound 0.0316 µM",95.3%
same,"viability, T/C","second compound 0.0316 µM, first compound 0.1 µM",86.6%
same,"viability, T/C","second compound 0.0316 µM, first compound 0.316 µM",88.6%
same,"viability, T/C","second compound 0.0316 µM, first compound 1 µM",80.1%
same,"viability, T/C","second compound 0.0316 µM, first compound 3.16 µM",108%
same,"viability, T/C","second compound 0.0316 µM, first compound 10 µM",77.8%
same,"viability, T/C","second compound 0.1 µM, first compound 0.0316 µM",88%
same,"viability, T/C","second compound 0.1 µM, first compound 0.1 µM",89.2%
same,"viability, T/C","second compound 0.1 µM, first compound 0.316 µM",77.7%
same,"viability, T/C","second compound 0.1 µM, first compound 1 µM",81%
same,"viability, T/C","second compound 0.1 µM, first compound 3.16 µM",87.5%
same,"viability, T/C","second compound 0.1 µM, first compound 10 µM",73.1%
same,"viability, T/C","second compound 0.316 µM, first compound 0.0316 µM",90%
same,"viability, T/C","second compound 0.316 µM, first compound 0.1 µM",82.5%
same,"viability, T/C","second compound 0.316 µM, first compound 0.316 µM",89.6%
same,"viability, T/C","second compound 0.316 µM, first compound 1 µM",87.6%
same,"viability, T/C","second compound 0.316 µM, first compound 3.16 µM",82.7%
same,"viability, T/C","second compound 0.316 µM, first compound 10 µM",60.7%
same,"viability, T/C","second compound 1 µM, first compound 0.0316 µM",85.5%
same,"viability, T/C","second compound 1 µM, first compound 0.1 µM",74.3%
same,"viability, T/C","second compound 1 µM, first compound 0.316 µM",74.7%
same,"viability, T/C","second compound 1 µM, first compound 1 µM",74.8%
same,"viability, T/C","second compound 1 µM, first compound 3.16 µM",81.2%
same,"viability, T/C","second compound 1 µM, first compound 10 µM",55.2%
Cn1cnc2c(F)c(Nc3ccc(Br)cc3Cl)c(C(=O)NOCCO)cc21 + Cc1nc(NC(=O)N2CCCC2C(N)=O)sc1-c1ccnc(C(C)(C)C(F)(F)F)c1,pIC50,second compound 0.0316 µM,< 5.52
same,pIC50,second compound 0.1 µM,5.74
same,pIC50,second compound 0.316 µM,6.02
same,pIC50,second compound 1 µM,6.41
same,pIC50,second compound 3.16 µM,7.74
same,pIC50,second compound 10 µM,> 8.02
same,"viability, T/C","second compound 0.0316 µM, first compound 0.00949 µM",75.3%
same,"viability, T/C","second compound 0.0316 µM, first compound 0.03 µM",80%
same,"viability, T/C","second compound 0.0316 µM, first compound 0.0949 µM",76.9%
same,"viability, T/C","second compound 0.0316 µM, first compound 0.3 µM",94.1%
same,"viability, T/C","second compound 0.0316 µM, first compound 0.949 µM",69.4%
same,"viability, T/C","second compound 0.0316 µM, first compound 3 µM",50.8%
same,"viability, T/C","second compound 0.1 µM, first compound 0.00949 µM",82.7%
same,"viability, T/C","second compound 0.1 µM, first compound 0.03 µM",77.6%
same,"viability, T/C","second compound 0.1 µM, first compound 0.0949 µM",77.8%
same,"viability, T/C","second compound 0.1 µM, first compound 0.3 µM",86.5%
same,"viability, T/C","second compound 0.1 µM, first compound 0.949 µM",60.7%
same,"viability, T/C","second compound 0.1 µM, first compound 3 µM",41.5%
same,"viability, T/C","second compound 0.316 µM, first compound 0.00949 µM",98.5%
same,"viability, T/C","second compound 0.316 µM, first compound 0.03 µM",82.2%
same,"viability, T/C","second compound 0.316 µM, first compound 0.0949 µM",69.7%
same,"viability, T/C","second compound 0.316 µM, first compound 0.3 µM",74.5%
same,"viability, T/C","second compound 0.316 µM, first compound 0.949 µM",46.9%
same,"viability, T/C","second compound 0.316 µM, first compound 3 µM",34.2%
same,"viability, T/C","second compound 1 µM, first compound 0.00949 µM",66.9%
same,"viability, T/C","second compound 1 µM, first compound 0.03 µM",69.4%
same,"viability, T/C","second compound 1 µM, first compound 0.0949 µM",57.2%
same,"viability, T/C","second compound 1 µM, first compound 0.3 µM",54.2%
same,"viability, T/C","second compound 1 µM, first compound 0.949 µM",40.1%
same,"viability, T/C","second compound 1 µM, first compound 3 µM",25.6%
same,"viability, T/C","second compound 3.16 µM, first compound 0.00949 µM",53.9%
same,"viability, T/C","second compound 3.16 µM, first compound 0.03 µM",47.8%
same,"viability, T/C","second compound 3.16 µM, first compound 0.0949 µM",37.5%
same,"viability, T/C","second compound 3.16 µM, first compound 0.3 µM",33.8%
same,"viability, T/C","second compound 3.16 µM, first compound 0.949 µM",21.2%
same,"viability, T/C","second compound 3.16 µM, first compound 3 µM",12.4%
same,"viability, T/C","second compound 10 µM, first compound 0.00949 µM",28.8%
same,"viability, T/C","second compound 10 µM, first compound 0.03 µM",14.7%
same,"viability, T/C","second compound 10 µM, first compound 0.0949 µM",15.8%
same,"viability, T/C","second compound 10 µM, first compound 0.3 µM",12.1%
same,"viability, T/C","second compound 10 µM, first compound 0.949 µM",7.32%
same,"viability, T/C","second compound 10 µM, first compound 3 µM",4.97%

# Source: PubChem BioAssay AID1963960 (Molecular Pharmacology Branch, DTP, NCI, 2024)
